Experimental data from the NIST ThermoML archive (doi:10.1016/j.fluid.2014.09.014).

Test: refractive index (other wavelength) (dimensionless); xn = mol fraction of the nth substance listed
Details: 101 kPa, Liquid, Standard Abbe refractometry

CC(C)OC(C)C [diisopropyl ether] + CO
Details | refractive index
308.15 K, Wavelength=632.8 nm, x2 = 0.9527 | 1.32818
308.15 K, Wavelength=632.8 nm, x2 = 0.9773 | 1.32479
308.15 K, Wavelength=632.8 nm, x2 = 0.989 | 1.32358
308.15 K, Wavelength=632.8 nm, x2 = 0.9964 | 1.32256
308.15 K, Wavelength=644 nm, x2 = 0 | 1.35823
308.15 K, Wavelength=644 nm, x2 = 0.0423 | 1.35813
308.15 K, Wavelength=644 nm, x2 = 0.0424 | 1.35825
308.15 K, Wavelength=644 nm, x2 = 0.082 | 1.35812
308.15 K, Wavelength=644 nm, x2 = 0.0822 | 1.35825
308.15 K, Wavelength=644 nm, x2 = 0.1171 | 1.35814
308.15 K, Wavelength=644 nm, x2 = 0.1271 | 1.35813
308.15 K, Wavelength=644 nm, x2 = 0.1827 | 1.35788
308.15 K, Wavelength=644 nm, x2 = 0.2162 | 1.35771
308.15 K, Wavelength=644 nm, x2 = 0.251 | 1.35735
308.15 K, Wavelength=644 nm, x2 = 0.3298 | 1.35728
308.15 K, Wavelength=644 nm, x2 = 0.3577 | 1.35703
308.15 K, Wavelength=644 nm, x2 = 0.4497 | 1.35516
308.15 K, Wavelength=644 nm, x2 = 0.4525 | 1.35557
308.15 K, Wavelength=644 nm, x2 = 0.522 | 1.35341
308.15 K, Wavelength=644 nm, x2 = 0.5543 | 1.35268
308.15 K, Wavelength=644 nm, x2 = 0.609 | 1.35028
308.15 K, Wavelength=644 nm, x2 = 0.6529 | 1.34881
308.15 K, Wavelength=644 nm, x2 = 0.7504 | 1.345
308.15 K, Wavelength=644 nm, x2 = 0.804 | 1.34088
308.15 K, Wavelength=644 nm, x2 = 0.807 | 1.34066
308.15 K, Wavelength=644 nm, x2 = 0.8727 | 1.33698
308.15 K, Wavelength=644 nm, x2 = 0.9233 | 1.32908
308.15 K, Wavelength=644 nm, x2 = 0.9253 | 1.331
308.15 K, Wavelength=644 nm, x2 = 0.9527 | 1.32794
308.15 K, Wavelength=644 nm, x2 = 0.9773 | 1.32455
308.15 K, Wavelength=644 nm, x2 = 0.989 | 1.32334
308.15 K, Wavelength=644 nm, x2 = 0.9964 | 1.32232
308.15 K, Wavelength=706.5 nm, x2 = 0 | 1.35683
308.15 K, Wavelength=706.5 nm, x2 = 0.0423 | 1.35672
308.15 K, Wavelength=706.5 nm, x2 = 0.0424 | 1.35677
308.15 K, Wavelength=706.5 nm, x2 = 0.082 | 1.35671
308.15 K, Wavelength=706.5 nm, x2 = 0.0822 | 1.35685
308.15 K, Wavelength=706.5 nm, x2 = 0.1171 | 1.35672
308.15 K, Wavelength=706.5 nm, x2 = 0.1271 | 1.35672
308.15 K, Wavelength=706.5 nm, x2 = 0.1827 | 1.35648
308.15 K, Wavelength=706.5 nm, x2 = 0.2162 | 1.35631
308.15 K, Wavelength=706.5 nm, x2 = 0.251 | 1.35595
308.15 K, Wavelength=706.5 nm, x2 = 0.3298 | 1.35588
308.15 K, Wavelength=706.5 nm, x2 = 0.3577 | 1.35565
308.15 K, Wavelength=706.5 nm, x2 = 0.4497 | 1.35375
308.15 K, Wavelength=706.5 nm, x2 = 0.4525 | 1.35416
308.15 K, Wavelength=706.5 nm, x2 = 0.522 | 1.35202
308.15 K, Wavelength=706.5 nm, x2 = 0.5543 | 1.35129
308.15 K, Wavelength=706.5 nm, x2 = 0.609 | 1.34894
308.15 K, Wavelength=706.5 nm, x2 = 0.6529 | 1.34745
308.15 K, Wavelength=706.5 nm, x2 = 0.7504 | 1.34368
308.15 K, Wavelength=706.5 nm, x2 = 0.804 | 1.33959
308.15 K, Wavelength=706.5 nm, x2 = 0.807 | 1.33939
308.15 K, Wavelength=706.5 nm, x2 = 0.8727 | 1.33572
308.15 K, Wavelength=706.5 nm, x2 = 0.9233 | 1.32789
308.15 K, Wavelength=706.5 nm, x2 = 0.9253 | 1.32976
308.15 K, Wavelength=706.5 nm, x2 = 0.9527 | 1.32672
308.15 K, Wavelength=706.5 nm, x2 = 0.9773 | 1.32336
308.15 K, Wavelength=706.5 nm, x2 = 0.989 | 1.32216
308.15 K, Wavelength=706.5 nm, x2 = 0.9964 | 1.32114
313.15 K, Wavelength=40.47 nm, x2 = 0 | 1.3674
313.15 K, Wavelength=40.47 nm, x2 = 0.0423 | 1.36734
313.15 K, Wavelength=40.47 nm, x2 = 0.0424 | 1.3674
313.15 K, Wavelength=40.47 nm, x2 = 0.082 | 1.36731
313.15 K, Wavelength=40.47 nm, x2 = 0.0822 | 1.3675
313.15 K, Wavelength=40.47 nm, x2 = 0.1171 | 1.36734
313.15 K, Wavelength=40.47 nm, x2 = 0.1271 | 1.36736
313.15 K, Wavelength=40.47 nm, x2 = 0.1827 | 1.36712
313.15 K, Wavelength=40.47 nm, x2 = 0.2162 | 1.36696
313.15 K, Wavelength=40.47 nm, x2 = 0.251 | 1.36648
313.15 K, Wavelength=40.47 nm, x2 = 0.3298 | 1.36657
313.15 K, Wavelength=40.47 nm, x2 = 0.3577 | 1.36568
313.15 K, Wavelength=40.47 nm, x2 = 0.4497 | 1.36434
313.15 K, Wavelength=40.47 nm, x2 = 0.4525 | 1.36476
313.15 K, Wavelength=40.47 nm, x2 = 0.522 | 1.36255
313.15 K, Wavelength=40.47 nm, x2 = 0.5543 | 1.36165
313.15 K, Wavelength=40.47 nm, x2 = 0.609 | 1.35929
313.15 K, Wavelength=40.47 nm, x2 = 0.6529 | 1.35769
313.15 K, Wavelength=40.47 nm, x2 = 0.7504 | 1.35369
313.15 K, Wavelength=40.47 nm, x2 = 0.804 | 1.34918
313.15 K, Wavelength=40.47 nm, x2 = 0.807 | 1.34928
313.15 K, Wavelength=40.47 nm, x2 = 0.8727 | 1.3456
313.15 K, Wavelength=40.47 nm, x2 = 0.9233 | 1.33747
313.15 K, Wavelength=40.47 nm, x2 = 0.9253 | 1.33918
313.15 K, Wavelength=40.47 nm, x2 = 0.9527 | 1.33616
313.15 K, Wavelength=40.47 nm, x2 = 0.9773 | 1.33271
313.15 K, Wavelength=40.47 nm, x2 = 0.989 | 1.33146
313.15 K, Wavelength=40.47 nm, x2 = 0.9964 | 1.33048
313.15 K, Wavelength=435.8 nm, x2 = 0 | 1.36447
313.15 K, Wavelength=435.8 nm, x2 = 0.0423 | 1.36444
313.15 K, Wavelength=435.8 nm, x2 = 0.0424 | 1.36447
313.15 K, Wavelength=435.8 nm, x2 = 0.082 | 1.3644
313.15 K, Wavelength=435.8 nm, x2 = 0.0822 | 1.36459
